Results taken from patent US9393229B2, “Method for treating abnormal polyglutamine-mediated disease” (NATIONAL TAIWAN NORMAL UNIVERSITY, priority 2013, dated 2016).
pIC50: −log10 of the molar value.

Assays:
[1] = test system: SCA17 mouse cerebellar slice culture; test: SCA17 mouse cerebellar slice culture, Purkinje cell aggregation; format: cell-based
Experimental: Cerebellum was separated from p7 SCA17 mice and transferred to ice-cold medium containing 50% basal medium eagle (Invitrogen), 25% Hank's buffered salt solution (Invitrogen), 25% horse serum (Invitrogen), 0.5% D-glucose (Sigma), 1 mM GlutaMAX I (Invitrogen), 100 U/mL penicillin (Invitrogen) and 100 μg/mL streptomycin (Invitrogen). The cerebellum was separated from the other brain regions in ice-cold medium, and the hemisphere was then cut into 350 μm parasagittal sections with a vibratome (VT1200S, Leica). To improve the survival rate of cerebellar slices, we continuously bubbled the medium with 95% O2 and 5% CO2 during the sectioning. The slices were then cultured on 0.4 μm pore size culture plate inserts (Millipore) in six-well plates. All treatments were applied to the slices at day 2. After culture for 7 days, cells were immunostained with primary antibody [IP3R-1 (for Purkinje cells), 1:1000, Santa Cruz; 1TBP18 (for aggregation), 1:30000, QED Bioscience], fluorescence-conjugated secondary antibody (1:500, Invitrogen) and DAPI (1:10000, Sigma). The staining results were observed by confocal microscope (DMRE, TCS SP2, Leica).
To further confirm neuroprotective potential of the indole compounds, we applied indole and NC001-8 to the SCA17 mouse cerebellar primary and slice cultures, respectively. […]

in vitro [2] = settings: human, HEK-293 cells
Experimental: (§3) Human embryonic kidney HEK-293 cells (ATCC No. CRL-1573) were cultivated in Dulbecco's modified Eagle's medium (DMEM) containing 10% fetal bovine serum (FBS). Human neuroblastoma SH-SY5Y cells (ATCC No. CRL-2266) were maintained in DMEM F12 supplemented with 10% FBS. Cells were cultivated at 37° C. incubator containing 5% CO2 and cell proliferation was measured based upon the reduction of the tetrazolium salt, 3,[4,5-dimethylthiazol-2-yl]-2,5-diphenyl-tetrazolium bromide (MTT). […] After one day, 20 μL MTT (5 mg/mL in PBS, Sigma) was added to cells and incubated for 2 hours. The absorbance of the purple formazan dye was measured at 570 nm by a Bio-Tek μtQuant Universal Microplate Spectrophotometer.

HSPA1A promoter = test: Triple fluorescent reporter cells, HSPA1A promoter activity; format: cell-based, human; settings: 100 nM-100 μM, 24 hours
Source text: (§1) Referring to three references (Zhang Y, Koushik S, Dai R, Mivechi N F, Journal of Biological Chemistry, vol. 273, no. 49, pp. 32514-32521, 1998; He M, Guo H, Yang X, Zhou L, Zhang X, Cheng L, Zeng H, Hu F B, Tanguay R M, Wu T, PLoS One, vol. 5, no. 3, e9684, 2010; and Wu Y R, Wang C K, Chen C M, Hsu Y, Lin S J, Lin Y Y, Fung H C, Chang K H, Lee-Chen G J, Human Genetics, vol. 114, no. 3, pp. 236-241, 2004), a triple fluorescent reporter plasmid was constructed in pAmCyan1-N1 with mCherry, ZsYellow1 and AmCyan1 fluorescent reporters driven by heat shock transcription factor1 (HSF1, −360˜+2, with the translation initiation A as +1), heat shock cognate protein (HSPA8, −1140˜+38, driving constitutively expressed HSP70) and heat-inducible HSP70 chaperone (HSPA1A, −273˜+215, driving heat-inducible HSP70) promoters, respectively. The fragment containing the HSF1, HSPA8 and HSPA1A driven reporters was removed with AseI and NotI restriction enzymes and used to replace an AseI-NotI fragment in pcDNA5/FRT/TO plasmid (Invitrogen). The resulting triple fluorescent reporter plasmid was used to generate triple fluorescent reporter cells by targeted insertion into Flp-In™-293 cells, according to the supplier's instructions (Invitrogen). The cells were selected by medium containing 5 μg/mL blasticidin S and 100 μg/mL hygromycin.
(§2) The three fluorescence colors were analyzed simultaneously using high-content analysis (HCA) system (ImageXpressMICRO, Molecular Devices), with excitation/emission wavelengths at […], 531/540 (ZsYellow1) and […].

in vitro [3] = settings: human, SH-SY5Y cells
Experimental: as §3

HSPA8 promoter = test: Triple fluorescent reporter cells, HSPA8 promoter activity; format: cell-based, human; settings: 100 nM-100 μM, 24 hours
Source text: as §1, §2

HSF1 promoter = test: Triple fluorescent reporter cells, HSF1 promoter activity; format: cell-based, human; settings: 100 nM-100 μM, 24 hours
Source text: as §1, §2

293 ATXN3/Q75-GFP cells = test: ATXN3/Q75 aggregation assay (high content analysis); format: cell-based, human; settings: at 100 nM; 6 days doxycycline and oxaliplatin
Experimental: Then, doxycycline (10 μg/mL, BD) was added to the medium in each well to induce ATXN3/Q75-GFP expression for 6 days. […] Then, cells were stained with Hoechst 33342 (0.1 μg/mL, Sigma) and aggregation percentage was assessed by high content analysis (HCA) system (ImageXpressMICRO, Molecular Devices), with excitation/emission wavelengths at 482/536 (EGFP).

SH-SY5Y cells = test: MTT cytotoxicity against SH-SY5Y cells; settings: read-out: IC50 (cytotoxicity) against SH-SY5Y cells; MTT assay, 24 hours
Experimental: as §3

LC3 = test: LC3-II/LC3-I ratio (autophagy) in 293 ATXN3/Q75 cells, Western blot; format: cell-based, human; settings: 293 ATXN3/Q75 cells +Dox 6 days, 200 nM; +Dox alone 59%
Experimental: Total proteins were prepared using lysis buffer containing 50 mM Tris-HCl, 150 mM NaCl, 1 mM EDTA, 1 mM EGTA, 0.1% SDS and 0.5% sodium deoxycholate, 1% Triton X-100, and protease inhibitor cocktail (Calbiochem). Proteins (25 μg) were separated on 10% SDS-polyacrylamide gel electrophoresis and blotted on to nitrocellulose membranes by reverse electrophoresis. After blocking, the membrane was probed with antibody to HSF1 (1:1000 dilution, Abnova), HSPA8 (1:500 dilution, Santa Cruz), HSPA1A (1:500 dilution, Santa Cruz), GFP (1:500 dilution, Santa Cruz), LC3 (1:3000 dilution, MBL International), TBP (N-12) (1:500 dilution, Santa Cruz), β-actin (1:5000 dilution, Millipore) or GAPDH (1:1000 dilution, MDBio) at 4° C. overnight. Then the immune complexes were detected by horseradish peroxidase-conjugated goat anti-mouse (Jackson ImmunoResearch) or goat anti-rabbit (Rochland) IgG antibody (1:5000 dilution, GeneTex) and chemiluminescent substrate (Millipore).

Molecule	reduction of Purkinje cell aggregation ([1]; 10 μM) [%]	IC50 at 24 h (in vitro [2]) [µM]	HSPA1A promoter activity (HSPA1A promoter)	IC50 at 24 h (in vitro [3]) [µM]	HSPA8 promoter activity (HSPA8 promoter)	HSF1 promoter activity (HSF1 promoter)	ATXN3/Q75 aggregation as compared to untreated cells (100%) (293 ATXN3/Q75-GFP cells) [%]	pIC50 (SH-SY5Y cells)	reduction of Purkinje cell aggregation ([1]; 10 nM) [%]	LC3-II/LC3-I ratio (LC3) [%]
O=C1CCc2[nH]c3ccccc3c21 [NC001-8, 3,4-dihydrocyclopenta[b]indol-1(2H)-one]	16	> 1000	same trend of enhancement	390	same trend of enhancement	same trend of enhancement				
geranylgeranylacetone [GGA, reference compound]			enhanced		enhanced	enhanced	85	3.00		
c1ccc2[nH]ccc2c1 [indole]		> 1000	same trend of enhancement	680	same trend of enhancement	same trend of enhancement			28	
O=C(CCCCCCC(=O)Nc1ccccc1)NO [SAHA, suberoylanilide hydroxamic acid]							85			
CO[C@H]1C[C@@H]2CC[C@@H](C)[C@@](O)(O2)C(=O)C(=O)N2CCCC[C@H]2C(=O)O[C@H]([C@H](C)C[C@@H]2CC[C@@H](O)[C@H](OC)C2)CC(=O)[C@H](C)/C=C(\C)[C@@H](O)[C@@H](OC)C(=O)[C@H](C)C[C@H](C)/C=C/C=C/C=C/1C [rapamycin]										98
